Experimental data as given in the NIST ThermoML archive (doi:10.1021/je100369a).

Legend:
[1] = mn = molality of the nth substance listed, in mol/kg; settings: 101 kPa, Liquid
[2] = refractive index (Na D-line) (dimensionless); settings: 101.33 kPa, Liquid, Standard Abbe refractometry
[3] = 101.33 kPa, Liquid

Oc1ccccc1C=NCCN=Cc1ccccc1O [2,2'-[ethylenebis(nitrilomethylidyne)]diphenol] + CN(C)C=O
mass density [kg/m3], [1]
Settings	m1 = 0.0302	m1 = 0.049	m1 = 0.0701	m1 = 0.0913	m1 = 0.1101	m1 = 0.1238	m1 = 0.1483	m1 = 0.1702	m1 = 0.1886
288.15 K	954.99	955.87	956.86	957.85	958.72	959.36	960.5	961.48	962.35
298.15 K	945.49	946.39	947.39	948.39	949.27	949.91	951.05	952.08	952.94
308.15 K	935.97	936.88	937.89	938.9	939.79	940.44	941.6	942.63	943.48
318.15 K	926.38	927.29	928.32	929.35	930.25	930.91	932.08	933.14	933.99

C[S+](C)[O-] [dimethyl sulfoxide]
Settings	mass density, 288.15 K [kg/m3]	mass density, 298.15 K [kg/m3]	mass density, 308.15 K [kg/m3]	mass density, 318.15 K [kg/m3]	refractive index, 288.15 K	refractive index, 298.15 K	refractive index, 308.15 K	refractive index, 318.15 K
[2]	–	–	–	–	1.4793	1.4752	1.471	1.467
[3]	1105.3	1095.29	1085.25	1075.21	–	–	–	–

CN(C)C=O [dimethylformamide]
Settings	mass density, 288.15 K [kg/m3]	mass density, 298.15 K [kg/m3]	mass density, 308.15 K [kg/m3]	mass density, 318.15 K [kg/m3]	refractive index, 288.15 K	refractive index, 298.15 K	refractive index, 308.15 K	refractive index, 318.15 K
[2]	–	–	–	–	1.431	1.4276	1.423	1.418
[3]	953.58	944.06	934.52	924.9	–	–	–	–

CC(=O)N(C)C [N,N-dimethylethanamide]
Settings	mass density, 288.15 K [kg/m3]	mass density, 298.15 K [kg/m3]	mass density, 308.15 K [kg/m3]	mass density, 318.18 K [kg/m3]	refractive index, 288.15 K	refractive index, 298.15 K	refractive index, 308.15 K	refractive index, 318.18 K
[2]	–	–	–	–	1.4382	1.4346	1.4312	1.426
[3]	945.5	936.28	927.05	917.79	–	–	–	–

ClC(Cl)Cl [trichloromethane]
Settings	mass density, 283.15 K [kg/m3]	mass density, 288.15 K [kg/m3]	mass density, 293.15 K [kg/m3]	mass density, 298.15 K [kg/m3]	refractive index, 283.15 K	refractive index, 288.15 K	refractive index, 293.15 K	refractive index, 298.15 K
[2]	–	–	–	–	1.45	1.4471	1.4439	1.442
[3]	1496.43	1487.09	1477.68	1468.28	–	–	–	–

Oc1ccccc1C=NCCN=Cc1ccccc1O [2,2'-[ethylenebis(nitrilomethylidyne)]diphenol] + ClC(Cl)Cl
mass density [kg/m3], [1]
Settings	m1 = 0.0099	m1 = 0.03	m1 = 0.0498	m1 = 0.0702	m1 = 0.0904	m1 = 0.1102	m1 = 0.1336	m1 = 0.1501	m1 = 0.19
283.15 K	1495.46	1493.53	1491.63	1489.69	1487.79	1485.95	1483.73	1482.28	1478.69
288.15 K	1486.15	1484.27	1482.44	1480.56	1478.71	1476.92	1474.75	1473.37	1469.85
293.15 K	1476.77	1474.97	1473.19	1471.36	1469.56	1467.84	1465.71	1464.38	1460.93
298.15 K	1467.41	1465.66	1463.95	1462.15	1460.41	1458.74	1456.68	1455.37	1452.05

ClCCl [dichloromethane]
Settings	mass density, 283.15 K [kg/m3]	mass density, 288.15 K [kg/m3]	mass density, 293.15 K [kg/m3]	mass density, 298.15 K [kg/m3]	refractive index, 283.15 K	refractive index, 288.15 K	refractive index, 293.15 K	refractive index, 298.15 K
[2]	–	–	–	–	1.4305	1.4276	1.4251	1.4219
[3]	1343.65	1334.57	1325.43	1316.27	–	–	–	–

Oc1ccccc1C=NCCN=Cc1ccccc1O [2,2'-[ethylenebis(nitrilomethylidyne)]diphenol] + CC(=O)N(C)C
mass density [kg/m3], [1]
Settings	m1 = 0.0298	m1 = 0.0503	m1 = 0.0704	m1 = 0.0902	m1 = 0.11	m1 = 0.13	m1 = 0.151	m1 = 0.1699	m1 = 0.1898
288.15 K	946.92	947.9	948.86	949.8	950.76	951.71	952.73	953.61	954.55
298.15 K	937.72	938.72	939.69	940.66	941.6	942.56	943.57	944.49	945.43
308.15 K	928.51	929.52	930.5	931.48	932.43	933.41	934.41	935.35	936.28
318.15 K	919.27	920.29	921.29	922.28	923.25	924.23	925.25	926.19	927.14

Oc1ccccc1C=NCCN=Cc1ccccc1O [2,2'-[ethylenebis(nitrilomethylidyne)]diphenol] + C[S+](C)[O-]
mass density [kg/m3], [1]
Settings	m1 = 0.0098	m1 = 0.03	m1 = 0.0502	m1 = 0.0697	m1 = 0.0903	m1 = 0.1097	m1 = 0.13	m1 = 0.1502	m1 = 0.1701	m1 = 0.1893
288.15 K	1105.42	1105.67	1105.93	1106.18	1106.45	1106.71	1106.99	1107.28	1107.55	1107.81
298.15 K	1095.42	1095.69	1095.96	1096.23	1096.52	1096.79	1097.08	1097.39	1097.66	1097.91
308.15 K	1085.39	1085.68	1085.97	1086.26	1086.56	1086.85	1087.14	1087.45	1087.75	1088.03
318.15 K	1075.36	1075.67	1075.98	1076.28	1076.6	1076.9	1077.22	1077.56	1077.84	1078.13

Oc1ccccc1C=NCCN=Cc1ccccc1O [2,2'-[ethylenebis(nitrilomethylidyne)]diphenol] + ClCCl
mass density [kg/m3], [1]
Settings	m1 = 0.0306	m1 = 0.049	m1 = 0.0703	m1 = 0.0903	m1 = 0.1103	m1 = 0.1301	m1 = 0.15	m1 = 0.1702	m1 = 0.1911
283.15 K	1342.32	1341.5	1340.58	1339.65	1338.77	1337.88	1337.01	1336.07	1335.14
288.15 K	1333.32	1332.54	1331.67	1330.82	1329.93	1329.12	1328.26	1327.34	1326.47
293.15 K	1324.26	1323.56	1322.69	1321.91	1321.06	1320.31	1319.5	1318.65	1317.78
298.15 K	1315.18	1314.5	1313.71	1312.95	1312.16	1311.43	1310.67	1309.84	1309.07
